Results on five molecules are retold here after US9126978B2, “1,4-benzodiazepine-2,5-diones and related compounds with therapeutic properties” (The Regents of the University of Michigan, priority 2009, dated 2015).

Assay [1] deals with ROCK-I (h, amino acids 17-535) (Homo sapiens (Human), UniProt Q13464). As to the kind of experiment: ROCK-I (h) inhibition assay. In kind it is biochemical. Particulars: radiometric [γ-32P-ATP] filter assay, 40 minutes at room temperature; read-out: ROCK1 IC50. The method, then: ROCK-I (h) Inhibition Assay:
In a final reaction volume of 25 μL, ROCK-I (h, amino acids 17-535) (5-10 mU) was incubated with 8 mM MOPS pH 7.0, 0.2 mM EDTA, 30 μM […], 10 mM magnesium acetate and [γ-^32P-ATP] (specific activity approx. 500 cpm/pmol, concentration as required). The reaction was initiated by the addition of the MgATP mix. After incubation for 40 minutes at room temperature, the reaction was stopped by the addition of 5 μL of a 3% phosphoric acid solution. 10 μL of the reaction was then spotted onto a P30 filtermat and washed three times for 5 minutes in 75 mM phosphoric acid and once in methanol prior to drying and scintillation counting.

In assay [2] the target is ROCK-II (h, amino acids 11-552) (Homo sapiens (Human), UniProt O75116). Description: ROCK-II (h) inhibition assay. In kind it is biochemical. Particulars: radiometric [γ-32P-ATP] filter assay, 40 minutes at room temperature; read-out: ROCK2 IC50. On the procedure:
ROCK-II (h) Inhibition Assay:
In a final reaction volume of 25 μL, ROCK-II (h, amino acids 11-552) (5-10 mU) was incubated with 50 mM Tris pH 7.5, 0.1 mM EGTA, 30 μM […], 10 mM magnesium acetate and [γ-^32P-ATP] (specific activity approx. 500 cpm/pmol, concentration as required). The reaction was initiated by the addition of the MgATP mix. After incubation for 40 minutes at room temperature, the reaction was stopped by the addition of 5 μL of a 3% phosphoric acid solution. 10 μL of the reaction was then spotted onto a P30 filter-mat and washed three times for 5 minutes in 75 mM phosphoric acid and once in methanol prior to drying and scintillation counting.

A value given as a limit tells only on which side of the number the result lay.

ROCK-I (h, amino acids 17-535), sequence (Q13464 17-535): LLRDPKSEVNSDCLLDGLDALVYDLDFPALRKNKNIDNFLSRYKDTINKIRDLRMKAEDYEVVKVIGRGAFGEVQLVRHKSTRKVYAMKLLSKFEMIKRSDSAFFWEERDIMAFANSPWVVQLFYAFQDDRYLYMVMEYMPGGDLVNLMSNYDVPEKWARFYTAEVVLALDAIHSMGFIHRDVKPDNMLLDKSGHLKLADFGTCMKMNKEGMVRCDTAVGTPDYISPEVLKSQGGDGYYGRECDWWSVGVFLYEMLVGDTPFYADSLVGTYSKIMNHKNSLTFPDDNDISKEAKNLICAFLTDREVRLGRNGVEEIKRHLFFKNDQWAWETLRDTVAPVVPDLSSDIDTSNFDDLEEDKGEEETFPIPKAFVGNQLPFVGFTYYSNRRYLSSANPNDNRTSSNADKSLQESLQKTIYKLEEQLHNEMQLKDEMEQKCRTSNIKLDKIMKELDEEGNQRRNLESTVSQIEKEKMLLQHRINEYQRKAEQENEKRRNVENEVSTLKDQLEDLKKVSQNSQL
ROCK-II (h, amino acids 11-552), sequence (O75116 11-552): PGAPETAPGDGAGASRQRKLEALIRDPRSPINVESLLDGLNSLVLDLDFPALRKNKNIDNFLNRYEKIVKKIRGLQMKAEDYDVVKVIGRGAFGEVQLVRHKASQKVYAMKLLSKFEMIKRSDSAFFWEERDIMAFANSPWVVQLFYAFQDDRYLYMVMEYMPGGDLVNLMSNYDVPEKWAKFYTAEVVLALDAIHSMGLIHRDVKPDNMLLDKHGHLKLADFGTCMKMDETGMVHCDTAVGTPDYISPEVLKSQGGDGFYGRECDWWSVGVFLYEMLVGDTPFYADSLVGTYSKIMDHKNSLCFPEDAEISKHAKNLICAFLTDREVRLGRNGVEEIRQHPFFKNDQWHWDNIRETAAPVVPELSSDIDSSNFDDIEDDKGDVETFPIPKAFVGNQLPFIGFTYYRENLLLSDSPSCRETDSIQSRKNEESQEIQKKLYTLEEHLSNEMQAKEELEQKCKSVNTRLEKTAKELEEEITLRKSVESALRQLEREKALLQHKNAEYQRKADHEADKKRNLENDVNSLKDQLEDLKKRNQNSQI

As to `CN1C(=O)[C@@H](Cc2ccc(-c3ccncc3)cc2)NC(=O)c2c(Cl)cccc21` [Compound 3, (R)-6-chloro-1-methyl-3-(4-(pyridin-4-yl)benzyl)-3,4-dihydro-1H-benzo[e][1,4]diazepine-2,5-dione], the IC50 (in general, the concentration needed to halve the response being measured) in assay [1] is greater than 30 µM; in assay [2], 860 nM. The corresponding values for `CN1C(=O)[C@@H](Cc2ccc(-c3ccncc3)cc2)NC(=O)c2ccc(Cl)cc21` [Compound 4, (R)-8-chloro-1-methyl-3-(4-(pyridin-4-yl)benzyl)-3,4-dihydro-1H-benzo[e][1,4]diazepine-2,5-dione] are greater than 10 µM and 800 nM.

`CN1C(=O)[C@@H](Cc2ccc(-c3ccncc3)cc2)NC(=O)c2cccc(Cl)c21` [Compound 5, (R)-9-chloro-1-methyl-3-(4-(pyridin-4-yl)benzyl)-3,4-dihydro-1H-benzo[e][1,4]diazepine-2,5-dione]: the IC50 in assay [1] was greater than 10 µM. As for `C[C@@]1(Cc2ccc(-c3ccncc3)cc2)NC(=O)c2cc(Cl)ccc2NC1=O` [Compound 2, (S)-7-chloro-3-methyl-3-(4-(pyridin-4-yl)benzyl)-3,4-dihydro-1H-benzo[e][1,4]diazepine-2,5-dione], the IC50 in assay [1] was greater than 10 µM. For `CN1C(=O)[C@@H](Cc2ccc(-c3ccncc3)cc2)NC(=O)c2cc(Cl)ccc21` [Compound 1, (R)-7-chloro-1-methyl-3-(4-(pyridin-4-yl)benzyl)-3,4-dihydro-1H-benzo[e][1,4]diazepine-2,5-dione], the half-maximal inhibitory concentration (IC50) in assay [1] was greater than 30 µM; in assay [2], 1100 nM.
